Source: ChEMBL document CHEMBL1148997, “Stereochemical considerations in relation to the pharmacological activity of Pterotaberna alkaloids” (J Nat Prod, 1985)
Calls of active or inactive are those of the source. The rule behind the calls is not given here.

Experiments:
Ileum [1] = experiment: Anticholinergic effect in guinea pig ileum assessed as inhibition of acetylcholine-induced contraction; type: functional
Ileum [2] = experiment: Inhibition of electrically-induced twitch contraction in guinea pig ileum at 3.4 uM; type: functional, tissue-based; conditions: Cavia porcellus
Ileum [3] = experiment: Inhibition of electrically-induced twitch contraction in guinea pig ileum at 1 ug/ml after 15 mins; type: functional; conditions: Cavia porcellus, 0.25 h
Ileum [4] = experiment: Antihistaminic effect in guinea pig ileum assessed as inhibition of histamine-induced contraction by Schild plot; type: functional, tissue-based; conditions: Cavia porcellus, read-out: pA2 (converted)
Ileum [5] = experiment: Inhibition of electrically-induced twitch contraction in guinea pig ileum at 3.2 uM; type: functional, tissue-based; conditions: Cavia porcellus
Ileum [6] = experiment: Inhibition of electrically-induced twitch contraction in guinea pig ileum at 3.4 uM preincubated for 15 mins before addition of naloxone in presence of naloxone; type: functional, tissue-based; conditions: Cavia porcellus
Ileum [7] = experiment: Antihistaminic effect in guinea pig ileum assessed as inhibition of histamine-induced contraction at 34 uM; type: functional, tissue-based; conditions: Cavia porcellus
Ileum [8] = experiment: Antihistaminic effect in guinea pig ileum assessed as inhibition of histamine-induced contraction; type: functional, Cavia porcellus
Ileum [9] = experiment: Anticholinergic effect in guinea pig ileum assessed as inhibition of acetylcholine-induced contraction at 1 uM; type: functional, tissue-based; conditions: Cavia porcellus
Ileum [10] = experiment: Anticholinergic effect in guinea pig ileum assessed as inhibition of acetylcholine-induced contraction at 3.4 uM; type: functional, tissue-based; conditions: Cavia porcellus
Ileum [11] = experiment: Inhibition of electrically-induced twitch contraction in guinea pig ileum at 1 uM; type: functional, tissue-based; conditions: Cavia porcellus
Intestine = experiment: Anticholinergic effect in rat intestine assessed as inhibition of acetylcholine-induced contraction; type: functional, tissue-based; conditions: read-out: pA2 (converted)

In the case of C/C=C1/CN(C)C[C@@H]2Cc3c([nH]c4ccccc34)C(=O)C[C@@H]12, the Activity (Ileum [1]; Cavia porcellus) is reported as “inactive”, the Activity (Ileum [2]) is reported as “Active” and the inhibition at 1 µg/mL (Ileum [3]) is reported as 20%. For the same compound, the Kb (Ileum [4]) was 0.282 µM.

C/C=C1/CN(C)C[C@H]2C(=O)c3c([nH]c4ccccc34)C(=O)C[C@@H]12 was tested, and the Activity (Ileum [5]) was “inactive”.

In the case of C/C=C1/C[N+](C)([O-])C[C@H]2Cc3c([nH]c4ccccc34)C(=O)C[C@@H]12 (stereo partly specified), the Activity (Ileum [5]) is reported as “inactive”.

C/C=C1/CN(C)C[C@H]2Cc3c([nH]c4ccccc34)C(=O)C[C@@H]12 [METHUENINE] was tested, and the pD2 (Ileum [1]) was 5.1, the Activity (Ileum [6]) was “Active” and the Activity (Ileum [7]) was “Active”. For the same compound, the Activity (Ileum [2]) was “Active”, the pD2 (Ileum [8]) was 5.13 and the Activity (Ileum [9]) was “Active”. For the same compound, the Activity (Ileum [10]) was “Active” and the Activity (Ileum [11]) was “Active”.

With COc1ccc(Cc2nccc3cc(OC)c(OC)cc23)cc1OC [PAPAVERINE] the pD2 (Ileum [1]) was 5.08 and the Kb (Intestine) was 15.8 µM.
